Data set [1] relates to gonadotrophin (LH and FSH) secretion. Particulars: immediate release doses of 1 and 10 mg; cited from earlier work.
For data set [2] the following is noted: human, in vivo. The text has this:
PK results for onapristone are available for 52 patients from the a first study (ARN-AR18-CT-101) (Table 1). Variability for onapristone PK is moderate and greater for the IR versus the ER formulation. Onapristone Cmax and AUC values for the ER form are proportional to administered dose (FIGS. 1 and 2). Based on observed mean AUC values, oral bioavailability for the ER versus the IR formulation is approximately 50% (FIG. 24). A later Tmax value for the ER form results in somewhat lower dose-corrected Cmax values for the ER form compared to the IR form. Steady state is attained before day 8 with a mean t % of 7.5 hrs.
Table 1 compares descriptive statistics for the primary onapristone pharmacokinetic exposure parameters following single oral doses from 10 to 50 mg of extended-release onapristone compared to that from 100 mg immediate-release onapristone (Study ARN-AR18-CT-101). […]
Blood samples were collected at 0, 1, 2, 3, 4, 6, 8, 12 (before next BID dose), and 24 (before next dose—for 100 mg IR only) hours post-ONA, as well as hour 0 on days 8, 29 and 57 (just before drug intake). Plasma concentrations of ONA, mono-demethylated onapristone (M1) and other metabolites in plasma and urine were analyzed with a validated ultra-performance liquid chromatography with tandem mass spectrometry detection (UPLC-MS/MS) assay. […]

The conditions of data set [3]: original immediate release (IR) formulation; cited from earlier work.

The values below come from patent US11672762B2, “Onapristone extended-release compositions and methods” (Context Biopharma Inc., priority 2014, dated 2023).

Consider `CN(C)c1ccc([C@H]2C[C@]3(C)[C@@H](CC[C@]3(O)CCCO)[C@@H]3CCC4=CC(=O)CCC4=C32)cc1` [onapristone, (8S,11R,13R,14S,17S)-11-[4-(dimethylamino)phenyl]-17-hydroxy-17-(3-hydroxypropyl)-13-methyl-1,2,6,7,8,11,12,14,15,16-decahydrocyclopenta[a]phenanthren-3-one], for which the “effect on gonadotrophin (LH, FSH) secretion” value in data set [1] was “dose-dependent effect of onapristone on suppression of gonadotrophin”. Moreover, in data set [2], the Steady state attained is less than 8 days and the mean t % worked out at 7.5 h. Moreover, in data set [3], the tolerability result is “well-tolerated with the exception of abnormalities in liver function tests”.
